Results reported in patent US10800782B2, “Inhibitors of cellular metabolic processes” (Agios Pharmaceuticals, Inc., priority 2016, dated 2020).

Target: T1, MAT2A (Homo sapiens, UniProt P31153)
T1 construct: His6; made in house; host or cells: SF9 insect cells
Experiment: MAT2A biochemical assay (colorimetric inorganic phosphate detection, PiColorLock)
Conditions: recombinant His6-tagged MAT2A 1 μg/ml; 60 minutes preincubation at 25° C.; L-Met 80 μM, ATP 100 μM; 60 minutes reaction; read at 623 nm; read-out: MAT2A Inhibition Score
Summary of the method: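 His6-tagged human MAT2A (SF9-expressed, 1 μg/ml) converting L-Met and ATP to SAM in Tris pH 8.0, 50 mM KCl, 15 mM MgCl2, 300 uM EDTA, 0.005% BSA; 60 min at room temperature. Released phosphate detected colorimetrically with malachite green phosphomolybdate. Ten-point, three-fold compound dilution series.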

T1 sequence (P31153 whole entry): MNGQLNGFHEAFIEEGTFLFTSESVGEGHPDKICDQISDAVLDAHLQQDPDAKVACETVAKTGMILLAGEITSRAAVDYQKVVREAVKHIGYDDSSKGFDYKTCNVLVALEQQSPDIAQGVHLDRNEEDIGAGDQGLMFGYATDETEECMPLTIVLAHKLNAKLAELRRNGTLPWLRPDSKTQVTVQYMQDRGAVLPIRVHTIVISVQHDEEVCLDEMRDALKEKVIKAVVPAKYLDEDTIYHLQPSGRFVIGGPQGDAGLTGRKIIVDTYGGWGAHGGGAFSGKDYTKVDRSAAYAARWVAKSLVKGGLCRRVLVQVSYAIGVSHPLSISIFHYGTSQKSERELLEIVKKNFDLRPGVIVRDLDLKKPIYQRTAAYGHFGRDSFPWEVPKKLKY

IC50 [nM] | Compound
1000 to 10000 | COc1cc(-c2nn3c(=O)c(-c4ccc5ncccc5c4)c(C)[nH]c3c2-c2ccccc2)ccn1 [Compound 351, 2-(2-methoxypyridin-4-yl)-5-methyl-3-phenyl-6-(quinolin-6-yl)pyrazolo[1,5-a]pyrimidin-7(4H)-one]
< 100 | Cc1[nH]c2c(-c3ccccc3)c(-c3ccccc3)nn2c(=O)c1-c1ccc2ncncc2c1 [Compound 245, 5-methyl-2,3-diphenyl-6-(quinazolin-6-yl)pyrazolo[1,5-a]pyrimidin-7(4H)-one]
< 100 | COc1ccc(-c2c(Nc3cc(OC)[nH]n3)[nH]c3c(-c4ccccc4)c(-c4ccccc4)nn3c2=O)cc1 [Compound 183, 5-((5-methoxy-1H-pyrazol-3-yl)amino)-6-(4-methoxyphenyl)-2,3-diphenylpyrazolo[1,5-a]pyrimidin-7(4H)-one]
1000 to 10000 | CC(=O)Nc1ccc(-c2c(C)[nH]c3c(N4CCCCC4)c(-c4ccccc4)nn3c2=O)cc1 [Compound 308, N-(4-(5-methyl-7-oxo-2-phenyl-3-(piperidin-1-yl)-4,7-dihydropyrazolo[1,5-a]pyrimidin-6-yl)phenyl)acetamide]
< 100 | COc1ccc(-c2c(Nc3nccn3C)[nH]c3c(-c4ccccc4)c(-c4ccccc4)nn3c2=O)cc1 [Compound 141, 6-(4-methoxyphenyl)-5-(1-methyl-1H-imidazol-2-ylamino)-2,3-diphenylpyrazolo[1,5-a]pyrimidin-7(4H)-one]
< 100 | COc1ccc(-c2c(Nc3c[nH]cn3)[nH]c3c(-c4ccccc4)c(-c4ccccc4)nn3c2=O)cc1 [Compound 184, 5-((1H-imidazol-4-yl)amino)-6-(4-methoxyphenyl)-2,3-diphenylpyrazolo[1,5-a]pyrimidin-7(4H)-one]
100 to 1000 | COc1ccc(-c2c(Cn3ncnn3)[nH]c3c(-c4ccccc4)c(-c4ccccc4)nn3c2=O)cc1 [Compound 339, 5-((2H-tetrazol-2-yl)methyl)-6-(4-methoxyphenyl)-2,3-diphenylpyrazolo[1,5-a]pyrimidin-7(4H)-one]
< 100 | COc1ccc(-c2c(C)[nH]c3c(C4=CCCCC4)c(-c4ccccc4)nn3c2=O)cc1 [Compound 212, 3-(cyclohex-1-en-1-yl)-6-(4-methoxyphenyl)-5-methyl-2-phenylpyrazolo[1,5-a]pyrimidin-7(4H)-one]
< 100 | COc1ccc(-c2c(Nc3cnccn3)[nH]c3c(C4=CCCCC4)c(-c4ccccc4)nn3c2=O)cc1 [Compound 158, 3-cyclohexenyl-6-(4-methoxyphenyl)-2-phenyl-5-(pyrazin-2-ylamino) pyrazolo[1,5-a]pyrimidin-7(4H)-one]
< 100 | COc1cnc2ccc(-c3c(C)[nH]c4c(-c5ccccc5)c(-c5ccccc5)nn4c3=O)cc2n1 [Compound 254, 6-(3-methoxy-quinoxalin-6-yl)-5-methyl-2,3-diphenylpyrazolo[1,5-a]-pyrimidin-7(4H)-one]
< 100 | COc1ccc(-c2c(Nc3cccc(C(N)=O)n3)[nH]c3c(-c4ccccc4)c(-c4ccccc4)nn3c2=O)cc1 [Compound 112, 6-((6-(4-methoxyphenyl)-7-oxo-2,3-diphenyl-4,7-dihydropyrazolo[1,5-a]pyrimidin-5-yl)amino)picolinamide]
< 100 | NCc1[nH]c2c(C3=CCCCC3)c(-c3ccccc3)nn2c(=O)c1-c1ccc2c(c1)OCCO2 [Compound 226, 5-(aminomethyl)-3-(cyclohex-1-en-1-yl)-6-(2,3-dihydrobenzo[b][1,4]dioxin-6-yl)-2-phenylpyrazolo[1,5-a]pyrimidin-7(4H)-one]
< 100 | NCc1[nH]c2c(-c3ccccc3)c(-c3ccccc3)nn2c(=O)c1-c1ccc2c(c1)OCCO2 [Compound 223, 5-(aminomethyl)-6-(2,3-dihydrobenzo[b][1,4]dioxin-6-yl)-2,3-diphenylpyrazolo[1,5-a]pyrimidin-7(4H)-one]
< 100 | COc1ccc(-c2c(Nc3ncc[nH]3)[nH]c3c(-c4ccccc4)c(-c4ccccc4)nn3c2=O)cc1 [Compound 142, 5-((1H-imidazol-2-yl)amino)-6-(4-methoxyphenyl)-2,3-diphenylpyrazolo[1,5-a]pyrimidin-7(4H)-one]
< 100 | COc1ccc(-c2c(C)n(C)c3c(N4CCCCC4)c(-c4ccccc4)nn3c2=O)cc1 [Compound 269, 6-(4-methoxyphenyl)-4,5-dimethyl-2-phenyl-3-(piperidin-1-yl)pyrazolo[1,5-a]pyrimidin-7(4H)-one]
< 100 | COc1ccc(-c2c(C)[nH]c3c(-c4ccccc4)c(-c4ccccc4)nn3c2=O)cc1 [Compound 209, 6-(4-methoxyphenyl)-5-methyl-2,3-diphenylpyrazolo[1,5-a]pyrimidin-7(4H)-one]
< 100 | CCOC(=O)c1nnc(Nc2[nH]c3c(-c4ccccc4)c(-c4ccccc4)nn3c(=O)c2-c2ccc3ncccc3c2)o1 [Compound 171, ethyl 5-((7-oxo-2,3-diphenyl-6-(quinolin-6-yl)-4,7-dihydropyrazolo[1,5-a]pyrimidin-5-yl)amino)-1,3,4-oxadiazole-2-carboxylate]
< 100 | Cc1[nH]c2c(C3=CCCCC3)c(-c3ccccc3)nn2c(=O)c1-c1ccc2nccnc2c1 [Compound 208, 3-(cyclohex-1-en-1-yl)-5-methyl-2-phenyl-6-(quinoxalin-6-yl)pyrazolo[1,5-a]pyrimidin-7(4H)-one]
< 100 | COc1ccc(-c2c(Nc3ccccn3)[nH]c3c(C4=CCCCC4)c(-c4ccccn4)nn3c2=O)cc1 [Compound 203, 3-(cyclohex-1-en-1-yl)-6-(4-methoxyphenyl)-2-(pyridin-2-yl)-5-(pyridin-2-ylamino)pyrazolo[1,5-a]pyrimidin-7(4H)-one]
100 to 1000 | Cc1[nH]c2c(-c3ccccc3)c(-c3ccccc3)nn2c(=O)c1C1=CCC(O)CC1 (stereo not shown) [Compound 337, 6-(4-hydroxycyclohex-1-en-1-yl)-5-methyl-2,3-diphenylpyrazolo[1,5-a]pyrimidin-7(4H)-one]
< 100 | O=c1c(-c2ccc3ncccc3c2)c(Nc2ccon2)[nH]c2c(-c3ccccc3)c(-c3ccccc3)nn12 [Compound 170, 5-(isoxazol-3-ylamino)-2,3-diphenyl-6-(quinolin-6-yl)pyrazolo[1,5-a]pyrimidin-7(4H)-one]
< 100 | COc1ccc(-c2c(C)[nH]c3c(N4CCC(F)(F)C4)c(-c4ccccc4)nn3c2=O)cc1 [Compound 272, 3-(3,3-difluoropyrrolidin-1-yl)-6-(4-methoxyphenyl)-5-methyl-2-phenylpyrazolo[1,5-a]pyrimidin-7(4H)-one]
< 100 | COc1ccc(-c2c(Nc3ccnc(O)n3)[nH]c3c(-c4ccccc4)c(-c4ccccc4)nn3c2=O)cc1 [Compound 119, 5-(2-hydroxypyrimidin-4-ylamino)-6-(4-methoxyphenyl)-2,3-diphenyl-pyrazolo[1,5-a]pyrimidin-7(4H)-one]
100 to 1000 | Cc1[nH]c2c(N3CCCCC3)c(-c3ccccc3)nn2c(=O)c1-c1ccncc1 [Compound 304, 5-methyl-2-phenyl-3-(piperidin-1-yl)-6-(pyridin-4-yl)pyrazolo[1,5-a]pyrimidin-7(4H)-one]

Compound | IC50 [nM]
O=c1c(-c2ccc3nccnc3c2)c(Nc2ccn[nH]2)[nH]c2c(C3=CCCCC3)c(-c3ccccc3)nn12 [Compound 191, 5-((1H-pyrazol-5-yl)amino)-3-(cyclohex-1-en-1-yl)-2-phenyl-6-(quinoxalin-6-yl)pyrazolo[1,5-a]pyrimidin-7(4H)-one] | < 100
